This passage reports Kd results from paper PMC12474298 (Viruses, 2025).

One assay deals with T1, IMPα3 (human IMPα3ΔIBB) (Homo sapiens, UniProt O00629).
T1 sequence (O00629 64-521 limits assumed): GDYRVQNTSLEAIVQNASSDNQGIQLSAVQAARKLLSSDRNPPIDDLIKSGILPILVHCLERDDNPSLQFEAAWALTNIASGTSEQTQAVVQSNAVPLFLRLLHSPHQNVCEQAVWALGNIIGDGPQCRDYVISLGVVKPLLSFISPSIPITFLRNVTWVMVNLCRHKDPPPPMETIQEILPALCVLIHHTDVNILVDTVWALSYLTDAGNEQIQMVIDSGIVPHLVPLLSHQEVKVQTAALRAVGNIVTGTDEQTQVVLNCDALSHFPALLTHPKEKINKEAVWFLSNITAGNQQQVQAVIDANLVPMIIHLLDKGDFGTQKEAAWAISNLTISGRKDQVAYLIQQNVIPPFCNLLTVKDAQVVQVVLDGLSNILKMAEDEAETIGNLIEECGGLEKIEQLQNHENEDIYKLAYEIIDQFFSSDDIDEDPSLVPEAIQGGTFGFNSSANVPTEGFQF
The experiment in a line: Fluorescence polarization assay, FITC-NLS peptide vs importin α3ΔIBB. A general note: In fluorescence polarisation assays a small probe gives low polarisation when free and higher when bound to something large.

For another assay, the target named is IMPα1 (human IMPα1ΔIBB) (Homo sapiens, UniProt P52292). The experiment in a line: Fluorescence polarization assay, FITC-NLS peptide vs importin α1ΔIBB.

Usually Kd stands for the concentration at which binding is half-saturated. Read a low Kd as a tighter complex.

Take `CC[C@H](C)[C@H](NC(=O)[C@H](CCCNC(=N)N)NC(=O)[C@H](CCCNC(=N)N)NC(=O)[C@H](CCCNC(=N)N)NC(=O)[C@H](CCCCN)NC(=O)[C@H](CCCCN)NC(=O)[C@@H](NC(=O)[C@H](CCC(=O)O)NC(=O)CCCCCNC(=S)Nc1ccc2c(c1)C(=O)OC21c2ccc(O)cc2Oc2cc(O)ccc21)[C@@H](C)O)C(=O)N[C@@H](CC(C)C)C(=O)N[C@@H](CCC(=O)O)C(N)=O` [HaHV1 UL36h NLS]: the equilibrium dissociation constant (Kd) at IMPα3 (human IMPα3ΔIBB) stood at 0.193 µM; on IMPα1 (human IMPα1ΔIBB) it was 0.226 µM.
